# According to US20120107391A1, “THERAPY OF PLATINUM-RESISTANT CANCER” (Genentech, Inc., priority 2004, published 2012):
# Where a name gives a salt, the structure may show the parent alone.
# Tests used:
# [1] = tested on: mitogen-activated protein kinase (MAPK) activation in MCF7 cells; assay: EGF, TGF-α or HRG mediated activation of MAPK in MCF7 cells (Western blot); format: cell-based, human; details: 200 nM antibody, 1 nM EGF, 1 nM TGF-α or 0.2 nM HRG
# Protocol: Many growth factor receptors signal through the mitogen-activated protein kinase (MAPK) pathway. These dual specificity kinases are one of the key endpoints in signal transduction pathways that ultimately triggers cancer cells to divide. […] MCF7 cells (10^5 cells/well) were plated in serum containing media in 12-well cell culture plates. The next day, the cell media was removed and fresh media containing 0.1% serum was added to each well. This procedure was then repeated the following day and prior to assay the media was replaced with serum-free binding buffer (Jones et al. J. Biol. Chem. 273:11667-74 (1998); and Schaefer et al. J. Biol. Chem. 274:859-66 (1999)). […] Cells were then treated with 1 nM EGF, 1 nM TGF-α or 0.2 nM HRG for 15 minutes. The reaction was stopped by aspirating the cell medium and then adding 0.2 mL SDS-PAGE sample buffer containing 1% DTT. MAPK activation was assessed by Western blotting using an anti-active MAPK antibody (Promega) as described previously (Jones et al. J. Biol. Chem. 273:11667-74 (1998)).
# [2] = tested on: HRG stimulation of p180 tyrosine phosphorylation in MCF7 cells; assay: Inhibition of HRG-stimulated p180 tyrosine phosphorylation in MCF7 cells (antiphosphotyrosine immunoblot, reflectance densitometry); format: cell-based, human; details: MCF7, 0.2 nM rHRGβ1
# Protocol: MCF7 cells were seeded in 24-well plates (1×10^5 cells/well) and grown to about 85% confluency for two days.
# MCF7 cells were plated in 24-well plates and monoclonal antibodies to HER2 were added to each well and incubated for 30 minutes at room temperature; then rHRGβ1177-244 was added to each well to a final concentration of 0.2 nM, and the incubation was continued for 8 minutes. Media was carefully aspirated from each well, and reactions were stopped by the addition of 100 μl of SDS sample buffer (5% SDS, 25 mM DTT, and 25 mM Tris-HCl, pH 6.8). Each sample (25 μl) was electrophoresed on a 4-12% gradient gel (Novex) and then electrophoretically transferred to polyvinylidene difluoride membrane. Antiphosphotyrosine (4G10, from UBI, used at 1 μg/ml) immunoblots were developed, and the intensity of the predominant reactive band at Mr ˜180,000 was quantified by reflectance densitometry, as described previously (Holmes et al. Science 256:1205-1210 (1992); Sliwkowski et al. J. Biol. Chem. 269:14661-14665 (1994)).
# [3] = tested on: MDA-MB-175 cells; assay: Growth inhibition of MDA-MB-175 cells, crystal violet staining, 4 days; format: cell-based; details: 10 μg/mL
# Protocol: Experiment was carried out in medium containing 1% serum. HER2 antibodies or medium alone were added and the cells were incubated for 2 hours at 37° C. Subsequently rHRGβ1 (1 nM) or medium alone were added and the cells were incubated for 4 days. Monolayers were washed and stained/fixed with 0.5% crystal violet. To determine cell proliferation the absorbance was measured at 540 nm.
# HER2 levels in MDA-MB-175 cells are 4-6 times higher than the level found in normal breast epithelial cells and the HER2-HER4 receptor is constitutively tyrosine phosphorylated in MDA-MB-175 cells. […] Inhibition of cell proliferation by 4D5 is dependent on the HER2 expression level (Lewis et al. Cancer Immunol. Immunother. 37:255-263 (1993)). […] However this effect could be overcome by exogenous HRG.
# [4] = tested on: SK-BR-3 cells; assay: Growth inhibition of SK-BR-3 cells, crystal violet staining, 4 days, with or without rHRGβ1; format: cell-based, human; details: FIG. 4B
# [5] = tested on: Akt activation in MCF7 breast cancer cells; details: cited from earlier work
# [6] = tested on: platinum-resistant ovarian cancer; details: patients with platinum-resistant disease; cited from earlier work
# [7] = tested on: advanced ovarian cancer; details: one of 3 subjects with advanced ovarian cancer; cited from earlier work
# [8] = cited from earlier work
compound,measurement,setting,value
"2C4: Murine monoclonal antibody binding the extracellular domain of HER2, ATCC HB-12697 [Mutant 2C4]","block of EGF, TGF-α and HRG mediated activation of MAPK",[1],significantly blocks
same,"generation of HRG-induced tyrosine phosphorylation signal at Mr 180,000",[2],significantly inhibited
same,growth inhibitory effect on MDA-MB-175 cells,[3],strong growth inhibitory effect
same,inhibitory effect on HER2 overexpressing cell line SK-BR-3,[4],no inhibitory effect
same,basal level of Akt activation,"[5]; MCF7, absence of heregulin addition",further reduced
same,heregulin-mediated Akt activation,"[5]; MCF7, Agus et al. 2002",inhibits
CC[C@@]1(O)C(=O)OCc2c1cc1n(c2=O)Cc2cc3c(CN(C)C)c(O)ccc3nc2-1 [Topotecan],partial response rate,[6],6%
Pertuzumab: Antibody with light and heavy chain SEQ ID NOS. 16 and 17; humanized version 574 variable domains with human IgG1 constant region,response,[7],durable partial response
"Nc1ccn([C@@H]2O[C@H](CO)[C@@H](O)C2(F)F)c(=O)n1 [Gemcitabine, 2′-deoxy-2′,2′-difluorocytidine monohydrochloride (b-isomer)]",partial response rate,[6],16%
same,toxicity when combined with other chemotherapeutic agents,"[8]; combined with taxanes, anthracyclines, platinums",without any significant increases or unexpected toxicities
same,combined incidence of nausea and vomiting,[8]; single agent,69%
same,incidence of anemia,[8]; single agent,68%
same,incidence of diarrhea,[8]; single agent,19%
same,incidence of neutropenia,[8]; single agent,63%
same,incidence of rash,[8]; single agent,30%
same,"nausea and vomiting, grade III incidence",[8]; single agent,13%
same,"nausea and vomiting, grade IV incidence",[8]; single agent,1%
same,"rash, grade III incidence",[8]; single agent,1%
